Test results reported in US8552011B2, “6-(C2-6alkylseleno)purines and methods for treating neural measles viral infection therewith” (priority 2008, dated 2013).

Key:
[1] = test system: HeLa cells; test: MTT tetrazole reduction assay, acute toxicity; type: cell-based, human; settings: 24 h incubation, 65, 10, 1, 0.1, 0.01, 0.001 ng/ml, 0.1% DMSO
Description: (§1) Cells and cell culture: HeLa cells (human cervical carcinoma) were used for these studies. Cells were maintained in DMEM medium supplemented with 10% fetal calf serum (FCS) and antibiotics in a humidified, 5% CO2 environment. Cells were passaged as required by trypsinization.
(§2) Evaluation of toxicity: Acute toxicity was quantified using a standard tetrazole reduction assay as a measure of cell proliferation/viability. Briefly, quadruplicate wells of HeLa cells (1×10^4 cells, 96-well plates) were incubated for 24 h with the ESP or DMSO as a control and the reduction of tetrazolium salt (MTT) to purple formazan by mitochondrial reductases enzymes in viable cells detected as a change in absorbance (λ=500-600 nm). Overt cytotoxicity was also evaluated qualitatively by microscopic analysis over longer exposure periods during the antiviral tests. Toxicity was considered to be evident if cell injury or loss was observed or a reduction in MTT activity of greater than twenty-five percent relative to controls was detected.
(1)—Evaluation of acute toxicity: ESP was assessed by MTT assay as described above using a series of dilutions (w/v): 65, 10, 1, 0.1, 0.01, 0.001 and 0 ng/ml. […] Toxicity was evaluated over a 24 h incubation period, a time period that corresponded to the pre-treatment phase of the anti-viral testing protocol.

[2] = test system: HeLa cells; test: Overt cytotoxicity by microscopic analysis during the antiviral tests; type: cell-based, human; settings: for toxic effects: by 72 h PI
Description: as §1, §2
(§3) Infection conditions: Cells (4×10^4 cells/well) were seeded in 24-well culture plates and pre-treated with ESP for 24 hr prior to infection. Cells were incubated with 100 μl of MV at the indicated MOI for 1 h at 37° C. before conditioned media containing the test compound and 5% FCS was replaced for the assay duration. MV replication was evaluated daily by microscopic analysis until cells were stained with 0.1% cresyl violet dye and scored for cytopathic effects. Similar conditions were employed for HSV-2 with the exception that infections were performed at 35° C. over a test period of 72 h.

[3] = test system: measles virus strain Edmonston (MV-E); test: Anti-viral screening, syncytia formation in infected HeLa cells; type: cell-based
Method: (§4) Viruses: Two strains of measles virus (MV) were evaluated in this study: 1) strain Edmonston (MV-E), the prototypical lab-adapted strain originally derived from the blood of a human patient in the acute phase of a typical infection, and 2) strain Halle (MV-H), a neurovirulent strain derived from a lymph node biopsy of a human patient with subacute sclerosing panencephalitis. One strain of herpes simplex virus (HSV) was evaluated: HSV-2 (strain G). This strain is a primary isolate derived from an active genital infection.
as §3

[4] = test system: measles virus strain Halle (MV-H); test: as above; type: cell-based; settings: for reduction of syncytia formation: MV-H infected HeLa cells
Method: as §4, §3

[5] = test system: HSV-2 (strain G); test: Anti-HSV screening, plaque formation in infected HeLa cells; type: cell-based, herpes simplex virus; settings: HSV-2, MOI 1, 0.1, 0.01, ESP 1, 0.5, 0.25, 0.1 μg/ml, 72 h
Method: as §4, §3
(4)—Anti-HSV screening: ESP was evaluated at 1, 0.5. 0.25, 0.1 and 0 μg/ml against HSV-2 at MOI=I, 0.1 and 0.01.

SMILES: CC[Se]c1ncnc2[nH]cnc12 [ESP]
- acute toxicity (MTT assay) [1]: toxicity was not observed
- concentration usable in the absence of toxic effects [2]: ≤ 1000 ng/mL
- toxic effects ([2]; 2.5 μg/ml): toxic effects were observed
- toxic effects ([2]; 5 μg/ml): toxic effects were observed
- overt cytotoxicity ([2]; 10 μg/ml, 72 h post-infection): overt cytotoxicity was observed
- overt cytotoxicity ([2]; 65 μg/ml, 24 h post-infection): overt cytotoxicity was observed
- toxicity during pre-treatment phase ([2]; 24 h pre-treatment before infection, 65-0.01 μg/ml): no toxicity was evident
- toxicity ([2]; concentrations less than or equal to 1 μg/ml, time-frames approaching one week): No toxicity was observed
- syncytia formation vs untreated controls ([3]; anti-MV screening, MOI 1.0, 0.1, 0.01, ESP 5-0.1 ng/ml as printed): did not significantly decrease syncytia formation
- syncytia formation, treated vs untreated wells ([3]; preliminary screening, MOI 1.0, 0.1, 0.01, Day 5 PI): syncytia formation did not differ between treated and untreated wells
- reduction of syncytia formation ([4]; 0.1 μg/ml ESP): 25%
- reduction of syncytia formation ([4]; 1 μg/ml ESP): 66%
- syncytia formation, treated vs vehicle controls ([4]; preliminary screening, MV-H, MOI 1.0, 0.1, 0.01, Day 5 PI): a decrease in syncytia formulation was evident
- viral replication as evidenced by plaque formation, vs vehicle controls [5]: No difference in viral replication
